Like-named read-outs stand apart in the source and are kept apart here.
Target: T1, Human Factor D (Homo sapiens, UniProt P00746)
T1 construct: purified from human serum; purchased Complement Technology, Inc; host or cells: human serum (natural protein, not recombinant)
Test: Human Factor D Assay
Type: biochemical
Description: Human Factor D (purified from human serum, Complement Technology, Inc.) at 80 nM final concentration is incubated with test compound at various concentrations for 5 min at room temperature in 50 mM Tris, 1M NaCl, pH 7.5. A synthetic substrate Z-L-Lys-SBzl and DTNB (Ellman's reagent) are added to final concentrations of 100 μM each. […] IC50 values are calculated by nonlinear regression of complement Factor D reaction rates as a function of test compound concentration.

[1] = Human Factor D 80 nM, substrate Z-L-Lys-SBzl, Table 2, read-out: IC50 (Stars)
[2] = Human Factor D 80 nM, substrate Z-L-Lys-SBzl, assay of Example 3, read-out: IC50 (Stars)

T1 sequence (P00746 26-253): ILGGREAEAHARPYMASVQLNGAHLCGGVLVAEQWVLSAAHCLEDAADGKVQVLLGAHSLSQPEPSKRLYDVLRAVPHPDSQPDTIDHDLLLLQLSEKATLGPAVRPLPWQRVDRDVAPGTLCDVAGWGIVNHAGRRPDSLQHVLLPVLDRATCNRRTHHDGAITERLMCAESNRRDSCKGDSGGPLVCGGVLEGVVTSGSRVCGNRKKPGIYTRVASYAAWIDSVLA

| IC50 [1] [nM] | Structure (SMILES) | further results |
| --- | --- | --- |
| < 1000 | CC(=O)c1nn(CC(=O)N2[C@H](C(=O)Nc3nc(Br)ccc3C)C[C@@]3(C)C[C@@H]23)c2c(C)cc(-c3cnc(CO)cn3)cc12 [Compound 127, (1R,3S,5R)-2-(2-(3-acetyl-5-(5-(hydroxymethyl)pyrazin-2-yl)-7-methyl-1H-indazol-1-yl)acetyl)-N-(6-bromo-3-methylpyridin-2-yl)-5-methyl-2-azabicyclo[3.1.0]hexane-3-carboxamide] |  |
| < 1000 | CC(=O)c1nn(CC(=O)N2[C@H](C(=O)Nc3nc(C(F)(F)F)ccc3C)C[C@@]3(C)C[C@@H]23)c2c(C)cc(-c3cnc4c(O)c(C)nn4c3)cc12 [Compound 232, (1R,3S,5R)-2-(2-(3-acetyl-5-(3-hydroxy-2-methylpyrazolo[1,5-a]pyrimidin-6-yl)-7-methyl-1H-indazol-1-yl)acetyl)-5-methyl-N-(3-methyl-6-(trifluoromethyl)pyridin-2-yl)-2-azabicyclo[3.1.0]hexane-3-carboxamide] |  |
| < 1000 | CC(=O)c1nn(CC(=O)N2C[C@H]3C[C@H]3[C@H]2C(=O)Nc2nc(Br)ccc2C)c2c(C)cc(-c3cnc(C(C)O)nc3)cc12 (stereo partly drawn) [Compound 164, (1R,2S,5S)-3-(2-(3-acetyl-5-(2-(1-hydroxyethyl)pyrimidin-5-yl)-7-methyl-1H-indazol-1-yl)acetyl)-N-(6-bromo-3-methylpyridin-2-yl)-3-azabicyclo[3.1.0]hexane-2-carboxamide] |  |
| < 1000 | CC(=O)c1nn(CC(=O)N2[C@H](C(=O)Nc3nc(Br)ccc3C)C[C@@]3(C)C[C@@H]23)c2c(C)cc(-c3cnc(F)nc3)cc12 [Compound 59, (1R,3S,5R)-2-(2-(3-acetyl-5-(2-fluoropyrimidin-5-yl)-7-methyl-1H-indazol-1-yl)acetyl)-N-(6-bromo-3-methylpyridin-2-yl)-5-methyl-2-azabicyclo[3.1.0]hexane-3-carboxamide] |  |
|  | CC(=O)c1nn(CC(=O)N2[C@H](C(=O)Nc3nc(Br)ccc3C)C[C@@]3(CNC(=O)COCCOCCNC(=O)COCCOCCNC(=O)CC[C@H](NC(=O)CCCCCCCCCCCCCCCCC(=O)O)C(=O)O)C[C@@H]23)c2ccc(OC(=O)NC3CC3)cc12 [Compound 15, (S)-1-((1R,3S,5R)-2-(2-(3-acetyl-5-((cyclopropylcarbamoyl)oxy)-1H-indazol-1-yl)acetyl)-3-((6-bromo-3-methylpyridin-2-yl)carbamoyl)-2-azabicyclo[3.1.0]hexan-5-yl)-24-carboxy-3,12,21,26-tetraoxo-5,8,14,17-tetraoxa-2,11,20,25-tetraazatritetracontan-43-oic acid] | IC50: < 1000 nM |
| < 1000 | COCC(Cc1ccccc1)NC(=O)[C@@H]1C[C@@]2(C)C[C@H]2N1C(=O)Cn1nc(C(C)=O)c2cc(-c3cnc(C)nc3)cc(C)c21 (stereo partly drawn) [Compound 172, (1R,3S,5R)-2-{2-[3-acetyl-7-methyl-5-(2-methylpyrimidin-5-yl)indazol-1-yl]acetyl}-N-(1-methoxy-3-phenylpropan-2-yl)-5-methyl-2-azabicyclo[3.1.0]hexane-3-carboxamide] |  |
| < 1000 | CC(=O)c1nn(CC(=O)N2[C@H](C(=O)NC(C)Cc3cnccn3)C[C@@]3(C)C[C@@H]23)c2c(C)cc(-c3cnc(C)nc3)cc12 (stereo partly drawn) [Compound 188, (1R,3S,5R)-2-{2-[3-acetyl-7-methyl-5-(2-methylpyrimidin-5-yl)indazol-1-yl]acetyl}-5-methyl-N-[1-(pyrazin-2-yl)propan-2-yl]-2-azabicyclo[3.1.0]hexane-3-carboxamide] |  |
| < 1000 | CC(=O)c1nn(CC(=O)N2[C@H](C(=O)NC(C)Cc3cccc(F)c3)C[C@@]3(C)C[C@@H]23)c2c(C)cc(-c3cnc(C)nc3)cc12 (stereo partly drawn) [Compound 187, (1R,3S,5R)-2-{2-[3-acetyl-7-methyl-5-(2-methylpyrimidin-5-yl)indazol-1-yl]acetyl}-N-[1-(3-fluorophenyl)propan-2-yl]-5-methyl-2-azabicyclo[3.1.0]hexane-3-carboxamide] |  |
| < 1000 | COCc1cc(-c2cnc(C)nc2)cc2c(C(C)=O)cn(CC(=O)N3[C@H](C(=O)Nc4nc(C(F)(F)F)ccc4C)C[C@@]4(C)C[C@@H]34)c12 [Compound 238, (1R,3S,5R)-2-(2-(3-acetyl-7-(methoxymethyl)5-(2-methylpyrimidin-5-yl)-1H-indol-1-yl)acetyl)-5-methyl-N-(3-methyl-6-(trifluoromethyl)pyridin-2-yl)-2-azabicyclo[3.1.0]hexane-3-carboxamide] |  |
|  | CC(=O)c1nn(CC(=O)N2C[C@H](F)C[C@H]2C(=O)Nc2cccc(Br)n2)c2ccc(-c3ccc(C)nn3)cc12 [Compound 35, (2S,4R)-1-(2-(3-Acetyl-5-(6-methylpyridazin-3-yl)-1H-indazol-1-yl)acetyl)-N-(6-bromopyridin-2-yl)-4-fluoropyrrolidine-2-carboxamide] | IC50 [2]: < 1000 nM |
| < 1000 | CC(=O)c1nn(CC(=O)N2[C@H](C(=O)Nc3nc(Br)ccc3C3CC3)C[C@@]3(C)C[C@@H]23)c2ccc(-c3cnc(CO)nc3)cc12 [Compound 81, (1R,3S,5R)-2-(2-(3-acetyl-5-(2-(hydroxymethyl)pyrimidin-5-yl)-1H-indazol-1-yl)acetyl)-N-(6-bromo-3-cyclopropylpyridin-2-yl)-5-methyl-2-azabicyclo[3.1.0]hexane-3-carboxamide] |  |
| < 1000 | CC(=O)c1nn(CC(=O)N2[C@H](C(=O)Nc3cncc(Br)n3)C[C@@]3(C)C[C@@H]23)c2c(C)cc(-c3cnc(C(C)O)nc3)cc12 (stereo partly drawn) [Compound 109, (1R,3S,5R)-2-(2-(3-acetyl-5-(2-(1-hydroxyethyl)pyrimidin-5-yl)-7-methyl-11H-indazol-1-yl)acetyl)-N-(6-bromopyrazin-2-yl)-5-methyl-2-azabicyclo[3.1.0]hexane-3-carboxamide] |  |
|  | CC(=O)c1nn(CC(=O)N2[C@H](C(=O)Nc3nc(Br)ccc3C)C[C@@]3(C)C[C@@H]23)c2c(C)cc(-c3cnc(C)nc3O)cc12 [Compound 28, (1R,3S,5R)-2-(2-(3-acetyl-5-(4-hydroxy-2-methylpyrimidin-5-yl)-7-methyl-1H-indazol-1-yl)acetyl)-N-(6-bromo-3-methylpyridin-2-yl)-5-methyl-2-azabicyclo[3.1.0]hexane-3-carboxamide] | IC50 [2]: < 1000 nM |
| < 1000 | CC(=O)c1nn(CC(=O)N2[C@H](C(=O)Nc3nc(Br)ccc3C)C[C@@]3(C)C[C@@H]23)c2c(C)cc(-c3cnc([C@H](C)O)nc3)cc12 (single isomer, unassigned) [Compound 141] |  |
|  | CC(=O)c1nn(CC(=O)N2[C@H](C(=O)Nc3nc(Br)ccc3C)C[C@@]3(CO)C[C@@H]23)c2ccc(-c3cnc(CO)nc3)cc12 [Compound 32, (1R,3S,5S)-2-(2-(3-Acetyl-5-(2-(hydroxymethyl)pyrimidin-5-yl)-1H-indazol-1-yl)acetyl)-N-(6-bromo-3-methylpyridin-2-yl)-5-(hydroxymethyl)-2-azabicyclo[3.1.0]hexane-3-carboxamide] | IC50 [2]: < 1000 nM |
| < 1000 | CC(=O)c1nn(CC(=O)N2[C@H](C(=O)Nc3nc(Br)ccc3C)C[C@@]3(C)C[C@@H]23)c2cc(CF)c(Nc3cnc(C)nc3)cc12 [Compound 185, (1R,3S,5R)-2-(2-(3-acetyl-6-(fluoromethyl)-5-((2-methylpyrimidin-5-yl)amino)-1H-indazol-1-yl)acetyl)-N-(6-bromo-3-methylpyridin-2-yl)-5-methyl-2-azabicyclo[3.1.0]hexane-3-carboxamide] |  |
| < 1000 | CC(=O)c1nn(CC(=O)N2[C@H]3CC[C@H](C3)[C@H]2C(=O)Nc2nc(Br)ccc2C)c2c(C)cc(-c3cnc(CO)nc3)cc12 [Compound 100, (1S,3S,4R)-2-(2-(3-acetyl-5-(2-(hydroxymethyl)pyrimidin-5-yl)-7-methyl-1H-indazol-1-yl)acetyl)-N-(6-bromo-3-methylpyridin-2-yl)-2-azabicyclo[2.2.1]heptane-3-carboxamide] |  |
| < 1000 | CCCCC(NC(=O)[C@@H]1C[C@@]2(C)C[C@H]2N1C(=O)Cn1nc(C(C)=O)c2cc(-c3cnc(C)nc3)cc(C)c21)C(F)(F)F (stereo partly drawn) [Compound 88, (1R,3S,5R)-2-{2-[3-acetyl-7-methyl-5-(2-methylpyrimidin-5-yl)indazol-1-yl]acetyl}-5-methyl-N-(1,1,1-trifluorohexan-2-yl)-2-azabicyclo[3.1.0]hexane-3-carboxamide] |  |
| < 1000 | CC(=O)c1nn(CC(=O)N2[C@H](C(=O)Nc3cncc(Br)n3)C[C@@]3(C)C[C@@H]23)c2c(C)cc(-c3cnc(CO)nc3)cc12 [Compound 48, (1R,3S,5R)-2-(2-(3-acetyl-5-(2-(hydroxymethyl)pyrimidin-5-yl)-7-methyl-11H-indazol-1-yl)acetyl)-N-(6-bromopyrazin-2-yl)-5-methyl-2-azabicyclo[3.1.0]hexane-3-carboxamide] |  |
| < 1000 | C=CCC(Cc1ccccc1)NC(=O)[C@@H]1C[C@@]2(C)C[C@H]2N1C(=O)Cn1nc(C(C)=O)c2cc(-c3cnc(C)nc3)cc(C)c21 (stereo partly drawn) [Compound 174, (1R,3S,5R)-2-{2-[3-acetyl-7-methyl-5-(2-methylpyrimidin-5-yl)indazol-1-yl]acetyl}-5-methyl-N-(1-phenylpent-4-en-2-yl)-2-azabicyclo[3.1.0]hexane-3-carboxamide] |  |

| Structure (SMILES) | IC50 [1] [nM] | further results |
| --- | --- | --- |
| CC(=O)c1cn(CC(=O)N2[C@H](C(=O)Nc3nc(Br)c(F)cc3C)C[C@@]3(C)C[C@@H]23)c2c(C3CC3)cc(-c3cnc(C)nc3)cc12 [Compound 162] | < 1000 |  |
| CC(=O)c1nn(CC(=O)N2[C@H](C(=O)N[C@@H]3CCCC[C@@H]3C)C[C@@]3(C)C[C@@H]23)c2c(C)cc(-c3cnc(C)nc3)cc12 [Compound 190, (1R,3S,5R)-2-{2-[3-acetyl-7-methyl-5-(2-methylpyrimidin-5-yl)indazol-1-yl]acetyl}-5-methyl-N-[(1R,2S)-2-methylcyclohexyl]-2-azabicyclo[3.1.0]hexane-3-carboxamide] | < 1000 |  |

Reference: patent US20230022157A1 (Achillion Pharmaceuticals, Inc., priority 2018, published 2023)
